Assay results reported in US20250275924A1, “Anticholinergic Agents and Muscarinic Agonists for the Treatment of Demodex Related Conditions” (ATTILLAPS HOLDINGS INC., priority 2022, published 2025).
Read-outs that look alike come from different tables or passages of the source.

Experiments:
Demodex mites = assay: in vitro assay of Demodex mite paralysis and/or killing (survival time)
Protocol: FIG. 1A-1E is a table summary of an in vitro assay of various agents on Demodex mites survival time and paralysis.
FIG. 1A-1E is a summary of various agents tested in an in vitro assay of Demodex mite paralysis and/or killing. The efficacy of various agents are evaluated in Demodex characterization and/or survival time experiments, including in terms of LT50 (time at which 50% of Demodex mites are killed) and/or associated time (in hours: min or total minutes).

[1] = oral paroxetine, rosacea; cited from earlier work
[2] = grouping of active agents in the summary, data in FIG. 1A-1E (not reproduced)

Clc1ccc2c(c1)C(N1CCNCC1)=Nc1ccccc1O2 [amoxapine]
paralyzes Demodex mites (Demodex mites; [2]): paralyzes Demodex mites

CN1[C@@H]2CC[C@H]1C[C@@H](OC(c1ccccc1)c1ccccc1)C2 [benztropine]
kills Demodex mites (Demodex mites; [2]): kill Demodex mites

CC(NC(C)(C)C)C(=O)c1cccc(Cl)c1 (centres unmarked) [bupropion]
kills Demodex mites (Demodex mites; [2]): kill Demodex mites

CN(C)CCC(c1ccc(Cl)cc1)c1ccccn1 (centres unmarked) [chlorpheniramine]
paralyzes Demodex mites (Demodex mites; [2]): paralyzes Demodex mites

C[N+]12CCC(CC1)C(OC(=O)C(O)(c1ccccc1)c1ccccc1)C2 (centres unmarked) [clidinium]
paralyzes Demodex mites (Demodex mites; [2]): paralyzes Demodex mites

COc1ccc2c(c1)[C@]13CCCC[C@@H]1[C@H](C2)N(C)CC3 [dextromethorphan]
kills Demodex mites (Demodex mites; [2]): kill Demodex mites

CN(C)CCOC(c1ccccc1)c1ccccc1.Cn1c(=O)c2[nH]c(Cl)nc2n(C)c1=O [dimenhydrinate]
paralyzes Demodex mites (Demodex mites; [2]): paralyzes Demodex mites

CC(C)C(=O)Oc1ccc(CO)cc1[C@H](CCN(C(C)C)C(C)C)c1ccccc1 [fesoterodine]
paralyzes Demodex mites (Demodex mites; [2]): paralyzes Demodex mites

COCCCC/C(=N\OCCN)c1ccc(C(F)(F)F)cc1 [fluvoxamine]
kills Demodex mites (Demodex mites; [2]): kill Demodex mites

CN(C)CCCN1c2ccccc2CCc2ccccc21 [imipramine]
kills Demodex mites (Demodex mites; [2]): kill Demodex mites

CNC1(C)C2CCC(C2)C1(C)C (centres unmarked) [mecamylamine]
kills Demodex mites (Demodex mites; [2]): kill Demodex mites

CNCCC=C1c2ccccc2CCc2ccccc21 [nortriptyline]
paralyzes Demodex mites (Demodex mites; [2]): paralyzes Demodex mites

Fc1ccc([C@@H]2CCNC[C@H]2COc2ccc3c(c2)OCO3)cc1 [paroxetine]
onset of Demodex mite paralysis (Demodex mites; 1% paroxetine): within the first hour | period of Demodex mite paralysis (Demodex mites; 1% paroxetine): at least 12 hours | paralyzes Demodex mites (Demodex mites; [2]): paralyzes Demodex mites | patients indicative of improved clinical symptoms [1]: 42.9% | tolerability [1]: well-tolerated

CC(CN1c2ccccc2Sc2ccccc21)N(C)C (centres unmarked) [promethazine]
kills Demodex mites (Demodex mites; [2]): kill Demodex mites

OCCOCCN1CCN(C2=Nc3ccccc3Sc3ccccc32)CC1 [quetiapine]
paralyzes Demodex mites (Demodex mites): paralyzes Demodex mites

OC(CCN1CCCCC1)(c1ccccc1)C1CCCCC1 (centres unmarked) [trihexyphenidyl]
paralyzes Demodex mites (Demodex mites; [2]): paralyzes Demodex mites
